According to ChEMBL document CHEMBL1201862, “PubChem BioAssay data set” (2004):
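All cell lines were grown in 96-well plates and treated with compound for 48 hours. Abbreviation: GI50, concentration required for 50% inhibition of growth.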 Calls of active or inactive are those of the source. Rule as the data show it: active = GI50 up to about 1.1 µM and inactive = higher.

Assays:
Test in all cases: NCI-60 cell line screen, 48 h
CCRF-CEM = test system: CCRF-CEM
SF-295 = test system: SF-295
NCI-H23 = test system: NCI-H23
HL-60 = test system: HL-60
SNB-19 = test system: SNB-19
HCC 2998 = test system: HCC 2998
KM-20L2 = test system: KM-20L2
HCT-116 = test system: HCT-116
UACC-62 = test system: UACC-62
A549 = test system: A549
OVCAR-8 = test system: OVCAR-8
SW-620 = test system: SW-620
ACHN = test system: ACHN
UO-31 = test system: UO-31
HOP-92 = test system: HOP-92
HCT-15 = test system: HCT-15
HT-29 = test system: HT-29
MOLT-4 = test system: MOLT-4
HOP-62 = test system: HOP-62
EKVX = test system: EKVX
NCI-H522 = test system: NCI-H522
M19-MEL = test system: M19-MEL
OVCAR-3 = test system: OVCAR-3
SF-539 = test system: SF-539
NCI-H226 = test system: NCI-H226
RPMI-8226 = test system: RPMI-8226
SK-MEL-2 = test system: SK-MEL-2
UACC-257 = test system: UACC-257
TK-10 = test system: TK-10
CAKI-1 = test system: CAKI-1
IGROV-1 = test system: IGROV-1
DLD-1 = test system: DLD-1
SK-MEL-28 = test system: SK-MEL-28
COLO 205 = test system: COLO 205
U-251 = test system: U-251
NCI-H460 = test system: NCI-H460
SK-OV-3 = test system: SK-OV-3
SN12C = test system: SN12C
A498 = test system: A498
DMS-114 = test system: DMS-114
SNB-75 = test system: SNB-75
786-0 = test system: 786-0
LOX IMVI = test system: LOX IMVI
SNB-78 = test system: SNB-78
LXFL 529 = test system: LXFL 529
OVCAR-4 = test system: OVCAR-4
SF-268 = test system: SF-268
KM12 = test system: KM12
SK-MEL-5 = test system: SK-MEL-5
DMS-273 = test system: DMS-273
K562 = test system: K562
SR = test system: SR

CCCCCn1cnc2c1S(=O)(=O)N(C)C(NC(=O)c1ccccc1)=N2
GI50 (CCRF-CEM): > 100 µM (inactive) | GI50 (SF-295): > 100 µM (inactive) | GI50 (NCI-H23): > 100 µM (inactive) | GI50 (HL-60): > 100 µM (inactive) | GI50 (SNB-19): > 100 µM (inactive) | GI50 (HCC 2998): > 100 µM (inactive) | GI50 (KM-20L2): > 100 µM (inactive) | GI50 (HCT-116): > 100 µM (inactive) | GI50 (UACC-62): > 100 µM (inactive) | GI50 (A549): > 100 µM (inactive) | GI50 (OVCAR-8): > 100 µM (inactive) | GI50 (SW-620): > 100 µM (inactive) | GI50 (ACHN): > 100 µM (inactive) | GI50 (UO-31): > 100 µM (inactive) | GI50 (HOP-92): > 100 µM (inactive) | GI50 (HCT-15): > 100 µM | GI50 (HT-29): > 100 µM (inactive) | GI50 (MOLT-4): > 100 µM (inactive) | GI50 (HOP-62): > 100 µM (inactive) | GI50 (EKVX): > 100 µM (inactive) | GI50 (NCI-H522): > 100 µM (inactive) | GI50 (M19-MEL): > 100 µM (inactive) | GI50 (OVCAR-3): > 100 µM (inactive) | GI50 (SF-539): > 100 µM (inactive) | GI50 (NCI-H226): > 100 µM (inactive) | GI50 (RPMI-8226): > 100 µM (inactive) | GI50 (SK-MEL-2): > 100 µM (inactive) | GI50 (UACC-257): > 100 µM (inactive) | GI50 (TK-10): > 100 µM (inactive) | GI50 (CAKI-1): > 100 µM (inactive) | GI50 (IGROV-1): > 100 µM (inactive) | GI50 (DLD-1): > 100 µM (inactive) | GI50 (SK-MEL-28): > 100 µM (inactive) | GI50 (COLO 205): > 100 µM (inactive) | GI50 (U-251): > 100 µM (inactive) | GI50 (NCI-H460): > 100 µM (inactive) | GI50 (SK-OV-3): > 100 µM (inactive) | GI50 (SN12C): > 100 µM (inactive) | GI50 (A498): > 100 µM (inactive) | GI50 (DMS-114): > 100 µM (inactive) | GI50 (SNB-75): > 100 µM (inactive) | GI50 (786-0): > 100 µM (inactive) | GI50 (LOX IMVI): > 100 µM (inactive) | GI50 (SNB-78): > 100 µM (inactive) | GI50 (LXFL 529): > 100 µM (inactive) | GI50 (OVCAR-4): > 100 µM (inactive) | GI50 (SF-268): > 100 µM (inactive) | GI50 (KM12): > 100 µM (inactive) | GI50 (SK-MEL-5): > 100 µM (inactive) | GI50 (DMS-273): > 100 µM (inactive) | GI50 (K562): > 100 µM (inactive) | GI50 (SR): > 100 µM (inactive)
